Experimental data published in ChEMBL document CHEMBL2380239, “Novel ROS-activated agents utilize a tethered amine to selectively target acute myeloid leukemia” (Bioorg Med Chem Lett, 2013).

System: HeLa
Test: Cytotoxicity against human HeLa cells after 48 hrs by MTT assay
Type: functional, cell-based

`CN(CCCBr)c1ccccc1` was tested, and the IC50 was greater than 125 µM.

With `Oc1ccc(OCCNc2ccccc2)cc1` the IC50 was 30 µM.

Compound `CN(CCOc1ccc(O)cc1)c1ccccc1` has an IC50 of 18 µM.

Work on `CCN(CCOc1ccc(O)cc1)c1ccccc1` yielded an IC50 of 23 µM.
